Consider 30 molecules from patent US20230002334A1, “TRPM8 MODULATORS” (Givaudan SA, priority 2019, published 2023).

In the test the target is T1, hTRPM8 (Homo sapiens, UniProt Q7Z2W7).
T1 construct: expressed in transfected cells
The test is described as follows: Assay on TRPM8 modulators: calcium imaging (Fluo-4, Flexstation) in HEK293 cell line stably expressing hTRPM8. The note with it: HEK293 cells stably expressing hTRPM8, calcium influx, sigmoidal dose-response fit; read-out: EC50. The class given is cell-based. On the procedure:
A HEK293 cell line stably expressing hTRPM8 was generated according to Klein et al., (Chem. Senses 36: 649-658, 2011) and receptor activation was monitored by calcium imaging in a Flexstation. For Ca-imaging assays of TRPM8 channel activation, cells were seeded on day 0 at a density of 12000 cells per well in Dulbecco's modified Eagle medium (DMEM) containing 9% foetal bovine serum in black, clear bottom 96-well plates that had been coated with 0.001% polyethyleneimine (molecular weight=60 000, Acros Organics). On day 2, agonists were evaluated via calcium imaging using Fluo-4. Briefly, growth medium was discarded, and the cells were incubated in the dark for 1 h at 37° C. in 50 μL loading buffer consisting of 2.7 μM Fluo-4 AM (Invitrogen) and […] probenecid (Sigma-Aldrich) in DMEM (without serum). After incubation, the plates were washed five times with 100 μL of assay buffer (in mM: 130 NaCl, 5 KCl, 10 HEPES, 2 CaCl2, and 10 glucose, pH7.4.) and further incubated in the dark at room temperature for 30 min. The cells were then washed five times with 100 μL assay buffer and then calcium influx to serial dilutions of inventive compounds were measured in a Flexstation 3 (Molecular Devices). Receptor activation was initiated following addition of 20 μl of a 10-fold concentrated ligand stock solution, which is also prepared in assay buffer. Fluorescence was continuously monitored for 15 seconds prior to ligand addition and for 105 seconds after ligand addition, for a total of 120 seconds. Maximal receptor activation in relation to solvent control and relative to 31.6 μM menthol is determined. Data from serial dilutions were processed with a KNIME workflow to fit a sigmoidal dose-response curve and to extrapolate EC50 values.

In general, EC50 refers to the concentration needed to bring the measured effect to its halfway point.

T1 sequence (Q7Z2W7 whole entry): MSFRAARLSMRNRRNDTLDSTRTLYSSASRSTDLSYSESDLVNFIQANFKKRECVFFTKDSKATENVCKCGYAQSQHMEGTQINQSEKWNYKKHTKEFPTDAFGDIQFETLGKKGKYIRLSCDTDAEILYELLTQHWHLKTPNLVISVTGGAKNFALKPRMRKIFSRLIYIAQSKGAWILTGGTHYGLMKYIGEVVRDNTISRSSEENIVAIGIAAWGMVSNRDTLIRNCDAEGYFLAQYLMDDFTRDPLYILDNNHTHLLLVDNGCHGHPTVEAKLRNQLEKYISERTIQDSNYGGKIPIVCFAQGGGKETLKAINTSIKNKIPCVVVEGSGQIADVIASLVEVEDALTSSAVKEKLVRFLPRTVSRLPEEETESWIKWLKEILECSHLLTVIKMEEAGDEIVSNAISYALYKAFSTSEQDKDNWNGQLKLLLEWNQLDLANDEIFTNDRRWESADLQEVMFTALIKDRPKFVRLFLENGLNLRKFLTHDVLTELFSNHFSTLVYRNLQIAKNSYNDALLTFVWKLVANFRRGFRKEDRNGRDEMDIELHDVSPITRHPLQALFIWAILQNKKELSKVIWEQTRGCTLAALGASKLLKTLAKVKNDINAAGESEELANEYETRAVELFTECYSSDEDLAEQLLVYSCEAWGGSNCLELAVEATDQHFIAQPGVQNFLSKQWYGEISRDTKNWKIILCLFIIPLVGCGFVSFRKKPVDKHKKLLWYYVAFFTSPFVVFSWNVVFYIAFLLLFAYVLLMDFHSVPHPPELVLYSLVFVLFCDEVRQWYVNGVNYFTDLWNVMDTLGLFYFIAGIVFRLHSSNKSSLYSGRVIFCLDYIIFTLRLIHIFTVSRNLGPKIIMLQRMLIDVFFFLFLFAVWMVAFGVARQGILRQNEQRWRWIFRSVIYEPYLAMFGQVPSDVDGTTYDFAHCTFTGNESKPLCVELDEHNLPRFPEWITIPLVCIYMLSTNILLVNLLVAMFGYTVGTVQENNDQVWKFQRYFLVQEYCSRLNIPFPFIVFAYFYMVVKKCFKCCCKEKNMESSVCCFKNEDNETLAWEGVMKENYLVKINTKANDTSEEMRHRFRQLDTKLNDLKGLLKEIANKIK

For `CCN1OC(C)(C)[C@@H]2C[C@](C)(CC=C(C)C)C[C@H](C)[C@H]21` (racemic) [Compound 53, rac-(3aR,5R,7S,7aR)-1-ethyl-3,3,5,7-tetramethyl-5-(3-methylbut-2-en-1-yl)octahydrobenzo[c]isoxazole], the EC50 fell in the range of 50 to 300 nM.

Take `CCN1OC(C)(C)[C@@H]2C[C@](C)(c3ccccc3C)C[C@H](C)[C@H]21` (racemic) [Compound 54, rac-(3aR,5R,7S,7aR)-1-ethyl-3,3,5,7-tetramethyl-5-(o-tolyl)octahydrobenzo[c]isoxazole]: the EC50 is less than 50 nM.

Take `CCN1OC(C)(C)[C@@H]2C[C@](C)(c3ccccc3)C[C@H](C)[C@H]21` (racemic) [Compound 55, rac-(3aR,5R,7S,7aR)-1-ethyl-3,3,5,7-tetramethyl-5-phenyloctahydrobenzo[c]isoxazole]: the EC50 lay within 50 to 300 nM.

Regarding `CCN1OC(C)(C)[C@@H]2C[C@H](C)C[C@H](C)[C@H]21` (racemic) [Compound 56, rac-(3aR,5R,7S,7aR)-1-ethyl-3,3,5,7-tetramethyloctahydrobenzo[c]isoxazole], the EC50 fell in the range of 1000 to 35000 nM.

`CCN1OC(C)(C)[C@@H]2C[C@H](c3ccccc3OC)C[C@H](C)[C@H]21` (racemic) [Compound 57, rac-(3aR,5R,7S,7aR)-1-ethyl-5-(2-methoxyphenyl)-3,3,7-trimethyloctahydrobenzo[c]isoxazole]: the EC50 was less than 50 nM.

As for `CC(C)=CC[C@@]1(C)C[C@@H]2[C@@H]([C@@H](C)C1)N(C(C)C)OC2(C)C` (racemic) [Compound 58, rac-(3aR,5R,7S,7aR)-1-isopropyl-3,3,5,7-tetramethyl-5-(3-methylbut-2-en-1-yl)octahydrobenzo[c]isoxazole], the EC50 lay within 50 to 300 nM.

Turning to `Cc1ccccc1[C@@]1(C)C[C@@H]2[C@@H]([C@@H](C)C1)N(C(C)C)OC2(C)C` (racemic) [Compound 59, rac-(3aR,5R,7S,7aR)-1-isopropyl-3,3,5,7-tetramethyl-5-(o-tolyl)octahydrobenzo[c]isoxazole], the EC50 lay in the range of 50 to 300 nM.

With `CC(C)N1OC(C)(C)[C@@H]2C[C@](C)(c3ccccc3)C[C@H](C)[C@H]21` (racemic) [Compound 60, rac-(3aR,5R,7S,7aR)-1-isopropyl-3,3,5,7-tetramethyl-5-phenyloctahydrobenzo[c]isoxazole], the concentration for a half-maximal effect (EC50) is 50 to 300 nM.

Regarding `CCC[C@@]1(C)C[C@@H]2[C@@H]([C@@H](C)C1)N(C(C)C)OC2(C)C` (racemic) [Compound 61, rac-(3aR,5R,7S,7aR)-1-isopropyl-3,3,5,7-tetramethyl-5-propyloctahydrobenzo[c]isoxazole], the EC50 was 1000 to 35000 nM.

In the case of `CC(C)=CC[C@H]1C[C@@H]2[C@@H]([C@@H](C)C1)N(C(C)C)OC2(C)C` (racemic) [Compound 62, rac-(3aR,5R,7S,7aR)-1-isopropyl-3,3,7-trimethyl-5-(3-methylbut-2-en-1-yl)octahydrobenzo[c]isoxazole], the half-maximal effective concentration (EC50) was in the range of 300 to 1000 nM.

On to `Cc1ccccc1[C@H]1C[C@@H]2[C@@H]([C@@H](C)C1)N(C(C)C)OC2(C)C` (racemic) [Compound 63, rac-(3aR,5R,7S,7aR)-1-isopropyl-3,3,7-trimethyl-5-(o-tolyl)octahydrobenzo[c]isoxazole], for which the EC50 fell in the range of 300 to 1000 nM.

In the case of `COc1ccccc1[C@@]1(C)C[C@@H]2[C@@H]([C@@H](C)C1)N(C(C)C)OC2(C)C` (racemic) [Compound 65, rac-(3aR,5R,7S,7aR)-1-isopropyl-5-(2-methoxyphenyl)-3,3,5,7-tetramethyloctahydrobenzo[c]isoxazole], the EC50 fell in the range of 50 to 300 nM.

Regarding `COc1ccc([C@@]2(C)C[C@@H]3[C@@H]([C@@H](C)C2)N(C(C)C)OC3(C)C)cc1` (racemic) [Compound 67, rac-(3aR,5R,7S,7aR)-1-isopropyl-5-(4-methoxyphenyl)-3,3,5,7-tetramethyloctahydrobenzo[c]isoxazole], the EC50 was 1000 to 35000 nM.

With `COc1cccc([C@@]2(C)C[C@@H]3[C@@H]([C@@H](C)C2)N(C(C)C)OC3(C)C)n1` (racemic) [Compound 68, rac-(3aR,5R,7S,7aR)-1-isopropyl-5-(6-methoxypyridin-2-yl)-3,3,5,7-tetramethyloctahydrobenzo[c]isoxazole], the EC50 was in the range of 300 to 1000 nM.

As for `Cc1cccc([C@@]2(C)C[C@@H]3[C@@H]([C@@H](C)C2)N(C)OC3(C)C)c1C` (racemic) [Compound 69, rac-(3aR,5R,7S,7aR)-5-(2,3-dimethylphenyl)-1,3,3,5,7-pentamethyloctahydrobenzo[c]isoxazole], the EC50 was 50 to 300 nM.

For `C[C@H]1C[C@@](C)(c2ccc(F)cc2F)C[C@@H]2[C@@H]1N(C)OC2(C)C` (racemic) [Compound 70, rac-(3aR,5R,7S,7aR)-5-(2,4-difluorophenyl)-1,3,3,5,7-pentamethyloctahydrobenzo[c]isoxazole], the EC50 was in the range of 50 to 300 nM.

As to `Cc1ccc([C@@]2(C)C[C@@H]3[C@@H]([C@@H](C)C2)N(C)OC3(C)C)c(C)c1` (racemic) [Compound 71, rac-(3aR,5R,7S,7aR)-5-(2,4-dimethylphenyl)-1,3,3,5,7-pentamethyloctahydrobenzo[c]isoxazole], the EC50 fell in the range of 50 to 300 nM.

As to `Cc1ccc([C@H]2C[C@@H]3[C@@H]([C@@H](C)C2)N(C)OC3(C)C)c(C)c1` (racemic) [Compound 72, rac-(3aR,5R,7S,7aR)-5-(2,4-dimethylphenyl)-1,3,3,7-tetramethyloctahydrobenzo[c]isoxazole], the EC50 lay within 50 to 300 nM.

Consider `C[C@H]1C[C@@](C)(c2cc(F)ccc2F)C[C@@H]2[C@@H]1N(C)OC2(C)C` (racemic) [Compound 73, rac-(3aR,5R,7S,7aR)-5-(2,5-difluorophenyl)-1,3,3,5,7-pentamethyloctahydrobenzo[c]isoxazole], for which the half-maximal effective concentration (EC50) was in the range of 50 to 300 nM.

`Cc1ccc(C)c([C@@]2(C)C[C@@H]3[C@@H]([C@@H](C)C2)N(C)OC3(C)C)c1` (racemic) [Compound 74, rac-(3aR,5R,7S,7aR)-5-(2,5-dimethylphenyl)-1,3,3,5,7-pentamethyloctahydrobenzo[c]isoxazole]: the EC50 was less than 50 nM.

With `Cc1ccc(C)c([C@H]2C[C@@H]3[C@@H]([C@@H](C)C2)N(C)OC3(C)C)c1` (racemic) [Compound 75, rac-(3aR,5R,7S,7aR)-5-(2,5-dimethylphenyl)-1,3,3,7-tetramethyloctahydrobenzo[c]isoxazole], the EC50 lay within 300 to 1000 nM.

For the molecule `Cc1cccc(C)c1[C@@]1(C)C[C@@H]2[C@@H]([C@@H](C)C1)N(C)OC2(C)C` (racemic) [Compound 76, rac-(3aR,5R,7S,7aR)-5-(2,6-dimethylphenyl)-1,3,3,5,7-pentamethyloctahydrobenzo[c]isoxazole], the EC50 fell in the range of 300 to 1000 nM.

Turning to `CCOc1ccccc1[C@@]1(C)C[C@@H]2[C@@H]([C@@H](C)C1)N(C)OC2(C)C` (racemic) [Compound 77, rac-(3aR,5R,7S,7aR)-5-(2-ethoxyphenyl)-1,3,3,5,7-pentamethyloctahydrobenzo[c]isoxazole], the EC50 lay within 300 to 1000 nM.

Consider `CCc1ccccc1[C@@]1(C)C[C@@H]2[C@@H]([C@@H](C)C1)N(C)OC2(C)C` (racemic) [Compound 78, rac-(3aR,5R,7S,7aR)-5-(2-ethylphenyl)-1,3,3,5,7-pentamethyloctahydrobenzo[c]isoxazole], for which the EC50 lay in the range of 50 to 300 nM.

As to `CCc1ccccc1[C@H]1C[C@@H]2[C@@H]([C@@H](C)C1)N(C)OC2(C)C` (racemic) [Compound 79, rac-(3aR,5R,7S,7aR)-5-(2-ethylphenyl)-1,3,3,7-tetramethyloctahydrobenzo[c]isoxazole], the EC50 fell in the range of 1000 to 35000 nM.

As to `CCc1ccccc1[C@H]1C[C@@H]2[C@@H]([C@@H](C)C1)N(C(C)C)OC2(C)C` (racemic) [Compound 80, rac-(3aR,5R,7S,7aR)-5-(2-ethylphenyl)-1-isopropyl-3,3,7-trimethyloctahydrobenzo[c]isoxazole], the EC50 lay in the range of 300 to 1000 nM.

Consider `C[C@H]1C[C@@](C)(c2ccccc2F)C[C@@H]2[C@@H]1N(C)OC2(C)C` (racemic) [Compound 81, rac-(3aR,5R,7S,7aR)-5-(2-fluorophenyl)-1,3,3,5,7-pentamethyloctahydrobenzo[c]isoxazole], for which the EC50 was in the range of 50 to 300 nM.

On to `COc1ccccc1[C@@]1(C)C[C@@H]2[C@@H]([C@@H](C)C1)N(C)OC2(C)C` (racemic) [Compound 82, rac-(3aR,5R,7S,7aR)-5-(2-methoxyphenyl)-1,3,3,5,7-pentamethyloctahydrobenzo[c]isoxazole], for which the EC50 lay within 50 to 300 nM.

With `C[C@H]1C[C@@](C)(c2ccc(F)c(F)c2)C[C@@H]2[C@@H]1N(C)OC2(C)C` (racemic) [Compound 84, rac-(3aR,5R,7S,7aR)-5-(3,4-difluorophenyl)-1,3,3,5,7-pentamethyloctahydrobenzo[c]isoxazole], the EC50 is 50 to 300 nM.

`COc1cc(OC)cc([C@@]2(C)C[C@@H]3[C@@H]([C@@H](C)C2)N(C)OC3(C)C)c1` (racemic) [Compound 86, rac-(3aR,5R,7S,7aR)-5-(3,5-dimethoxyphenyl)-1,3,3,5,7-pentamethyloctahydrobenzo[c]isoxazole]: the EC50 was in the range of 1000 to 35000 nM.
